Assay results from patent US20150064697A1 (priority 2012, published 2015).

Experiments:
[1] = test system: caspases 3 and 7 in ifnar−/− MEFs; assay: Caspase-3,7 activity assay (Ac-DEVD-AMC); details: 48 hours
[2] = test system: LLC cells; assay: Cell viability assay (methylene blue), cytotoxicity of 5-aza-dC; assay type: cell-based, mouse; details: 5 days treatment
[3] = test system: LLC cells; assay: Dot-blot hybridization for GSAT RNA; details: 10 μM 48 hours
[4] = test system: CT26 cells; assay: Dot-blot hybridization for GSAT RNA; details: CT26, 10 μM 48 hours
[5] = test system: SCC-VII cells; assay: Cell viability assay (methylene blue), cytotoxicity of 5-aza-dC; assay type: cell-based, mouse; details: 5 days treatment
[6] = test system: SCC-VII cells; assay: RT-PCR of IFNβ1, IRF7 and CXCL10 mRNA; details: 10 μM 48 hours
[7] = test system: CT26 cells; assay: Cell viability assay (methylene blue), cytotoxicity of 5-aza-dC; assay type: cell-based, mouse; details: 5 days treatment
[8] = test system: primary mouse hepatocytes (quiescent); assay: Viability of quiescent primary hepatocytes (methylene blue); assay type: cell-based; details: p53-wt and null hepatocytes, 5 days
[9] = test system: SCC-VII cells; assay: Dot-blot hybridization for GSAT RNA; details: 10 μM 48 hours
[10] = test system: LLC cells; assay: RT-PCR of IFNβ1, IRF7 and CXCL10 mRNA; details: 10 μM 48 hours
[11] = target: DNA methyltransferase I (DNMT1) (Mus musculus, UniProt P13864); assay: Western blot of DNMT1 protein level; assay type: cell-based; details: both p53-WT and p53-null cells, 48 hours
Sequence of DNA methyltransferase I (DNMT1) (P13864 whole entry): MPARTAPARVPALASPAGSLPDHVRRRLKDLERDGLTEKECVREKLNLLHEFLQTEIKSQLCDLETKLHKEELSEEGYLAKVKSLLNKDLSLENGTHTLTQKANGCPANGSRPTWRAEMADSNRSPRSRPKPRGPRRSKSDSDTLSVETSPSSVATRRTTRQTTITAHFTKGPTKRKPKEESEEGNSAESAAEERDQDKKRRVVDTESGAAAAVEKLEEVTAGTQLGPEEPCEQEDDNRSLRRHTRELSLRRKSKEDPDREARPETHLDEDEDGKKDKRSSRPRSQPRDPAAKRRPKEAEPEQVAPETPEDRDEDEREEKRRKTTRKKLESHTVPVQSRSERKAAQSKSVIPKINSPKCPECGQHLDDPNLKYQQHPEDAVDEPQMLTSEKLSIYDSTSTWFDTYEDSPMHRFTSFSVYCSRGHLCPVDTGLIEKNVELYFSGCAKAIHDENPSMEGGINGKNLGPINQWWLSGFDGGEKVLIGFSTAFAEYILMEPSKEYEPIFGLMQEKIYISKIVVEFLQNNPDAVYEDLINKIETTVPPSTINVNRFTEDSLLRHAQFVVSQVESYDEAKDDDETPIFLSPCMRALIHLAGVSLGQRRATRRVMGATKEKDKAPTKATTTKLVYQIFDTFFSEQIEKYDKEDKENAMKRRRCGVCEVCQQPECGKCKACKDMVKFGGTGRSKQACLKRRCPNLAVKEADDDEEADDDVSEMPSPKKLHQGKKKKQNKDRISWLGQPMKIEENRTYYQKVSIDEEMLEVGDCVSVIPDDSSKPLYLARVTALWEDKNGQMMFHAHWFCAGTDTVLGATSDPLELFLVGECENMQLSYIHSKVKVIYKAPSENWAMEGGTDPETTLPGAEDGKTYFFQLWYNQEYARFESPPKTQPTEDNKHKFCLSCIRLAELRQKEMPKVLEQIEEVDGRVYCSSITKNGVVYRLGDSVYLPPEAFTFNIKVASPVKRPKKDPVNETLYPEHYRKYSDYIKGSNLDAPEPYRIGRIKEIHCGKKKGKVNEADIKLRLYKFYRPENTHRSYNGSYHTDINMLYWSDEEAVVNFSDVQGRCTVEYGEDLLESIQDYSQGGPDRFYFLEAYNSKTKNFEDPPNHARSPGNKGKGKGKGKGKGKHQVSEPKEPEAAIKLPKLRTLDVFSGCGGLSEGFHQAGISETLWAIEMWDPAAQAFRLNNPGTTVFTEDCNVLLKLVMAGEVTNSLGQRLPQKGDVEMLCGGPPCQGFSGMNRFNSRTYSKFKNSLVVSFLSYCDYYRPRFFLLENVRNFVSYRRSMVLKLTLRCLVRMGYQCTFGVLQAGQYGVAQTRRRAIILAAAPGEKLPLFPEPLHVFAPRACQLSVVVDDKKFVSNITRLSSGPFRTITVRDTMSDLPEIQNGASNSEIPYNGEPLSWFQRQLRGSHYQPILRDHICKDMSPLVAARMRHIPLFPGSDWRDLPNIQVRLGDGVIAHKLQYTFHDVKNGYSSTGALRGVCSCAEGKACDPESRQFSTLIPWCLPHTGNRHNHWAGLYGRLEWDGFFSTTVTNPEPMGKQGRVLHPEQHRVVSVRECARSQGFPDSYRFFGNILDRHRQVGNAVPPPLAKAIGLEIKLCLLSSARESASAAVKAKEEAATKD

With `Nc1ncn([C@H]2C[C@H](O)[C@@H](CO)O2)c(=O)n1` [5-aza-dC, 5-aza-2′-deoxycytidine] the caspase activation [1] was “No signs of caspase activation”, the LD50 [2] was 14 µM and the “expression of GSAT RNA upon treatment” value [3] was “undetectable”. For the same molecule, the “expression of GSAT RNA upon treatment” value [4] was “intermediate”, the LD50 [5] was 0.125 µM and the “mRNAs encoding IFNβ1, IRF7 and CXCL10” value [6] was “strong upregulation”. For the same molecule, the LD50 [7] was 2 µM, the “sensitivity of quiescent cells to cultivation with 5-aza-dC” value [8] was “resistant” and the “expression of GSAT RNA upon treatment” value [9] was “strong”. For the same molecule, the “mRNAs encoding IFNβ1, IRF7 and CXCL10” value [10] was “none of these IFN response-associated transcripts was detected” and the “free DNMT1 protein after treatment” value [11] was “complete depletion”.
